In the supplement of paper PMC10307832:

How the values were obtained:
Assay in all cases: relative viability (nuclei count vs DMSO), 5 days (fraction); higher = more cells survive
Everolimus + Luminespib = compound: CO[C@H]1C[C@@H]2CC[C@@H](C)[C@@](O)(O2)C(=O)C(=O)N2CCCC[C@H]2C(=O)O[C@H]([C@H](C)C[C@@H]2CC[C@@H](OCCO)[C@H](OC)C2)CC(=O)[C@H](C)/C=C(\C)[C@@H](O)[C@@H](OC)C(=O)[C@H](C)C[C@H](C)/C=C/C=C/C=C/1C [Everolimus] + CCNC(=O)c1noc(-c2cc(C(C)C)c(O)cc2O)c1-c1ccc(CN2CCOCC2)cc1 [Luminespib] (partner 0.01 µM)
Summary of the method: (§1)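 Relative viability equals treated-well nuclei counts divided by vehicle-well nuclei counts. Counts came from 4× images of lung cancer cell lines grown in 1536-well plates for 5 days after pin-tool dosing on the day after seeding. Dosing used one drug alone or a fixed anchor-drug dose plus five library-drug doses (not always all listed) in √10 steps, and values are medians of duplicate plates.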

Everolimus + Dasatinib = compound: CO[C@H]1C[C@@H]2CC[C@@H](C)[C@@](O)(O2)C(=O)C(=O)N2CCCC[C@H]2C(=O)O[C@H]([C@H](C)C[C@@H]2CC[C@@H](OCCO)[C@H](OC)C2)CC(=O)[C@H](C)/C=C(\C)[C@@H](O)[C@@H](OC)C(=O)[C@H](C)C[C@H](C)/C=C/C=C/C=C/1C [Everolimus] + Cc1nc(Nc2ncc(C(=O)Nc3c(C)cccc3Cl)s2)cc(N2CCN(CCO)CC2)n1 [Dasatinib] (partner 0.075 µM)
Summary of the method: as §1

Everolimus + Bortezomib = compound: CO[C@H]1C[C@@H]2CC[C@@H](C)[C@@](O)(O2)C(=O)C(=O)N2CCCC[C@H]2C(=O)O[C@H]([C@H](C)C[C@@H]2CC[C@@H](OCCO)[C@H](OC)C2)CC(=O)[C@H](C)/C=C(\C)[C@@H](O)[C@@H](OC)C(=O)[C@H](C)C[C@H](C)/C=C/C=C/C=C/1C [Everolimus] + CC(C)C[C@H](NC(=O)[C@H](Cc1ccccc1)NC(=O)c1cnccn1)B(O)O [Bortezomib] (partner 0.002 µM)
Summary of the method: as §1

Everolimus + Navitoclax = compound: CO[C@H]1C[C@@H]2CC[C@@H](C)[C@@](O)(O2)C(=O)C(=O)N2CCCC[C@H]2C(=O)O[C@H]([C@H](C)C[C@@H]2CC[C@@H](OCCO)[C@H](OC)C2)CC(=O)[C@H](C)/C=C(\C)[C@@H](O)[C@@H](OC)C(=O)[C@H](C)C[C@H](C)/C=C/C=C/C=C/1C [Everolimus] + CC1(C)CCC(c2ccc(Cl)cc2)=C(CN2CCN(c3ccc(C(=O)NS(=O)(=O)c4ccc(N[C@H](CCN5CCOCC5)CSc5ccccc5)c(S(=O)(=O)C(F)(F)F)c4)cc3)CC2)C1 [Navitoclax] (partner 0.5 µM)
Summary of the method: as §1

Cell Line | relative viability (Everolimus + Luminespib; first compound 0.01 µM) | relative viability (Everolimus + Luminespib; first compound 0.03162 µM) | relative viability (Everolimus + Luminespib; first compound 0.1 µM) | relative viability (Everolimus + Luminespib; first compound 0.3162 µM) | relative viability (Everolimus + Luminespib; first compound 1 µM) | relative viability (Everolimus + Dasatinib; first compound 0.01 µM) | relative viability (Everolimus + Dasatinib; first compound 0.03162 µM) | relative viability (Everolimus + Dasatinib; first compound 0.1 µM) | relative viability (Everolimus + Dasatinib; first compound 0.3162 µM) | relative viability (Everolimus + Dasatinib; first compound 1 µM) | relative viability (Everolimus + Bortezomib; first compound 0.01 µM) | relative viability (Everolimus + Bortezomib; first compound 0.03162 µM) | relative viability (Everolimus + Bortezomib; first compound 0.1 µM) | relative viability (Everolimus + Bortezomib; first compound 0.3162 µM) | relative viability (Everolimus + Bortezomib; first compound 1 µM) | relative viability (Everolimus + Navitoclax; first compound 0.01 µM) | relative viability (Everolimus + Navitoclax; first compound 0.03162 µM) | relative viability (Everolimus + Navitoclax; first compound 0.1 µM) | relative viability (Everolimus + Navitoclax; first compound 0.3162 µM) | relative viability (Everolimus + Navitoclax; first compound 1 µM)
NCI-H2009 | 0.832 | 0.866 | 0.77 | 0.852 | 0.72 | 0.214 | 0.218 | 0.225 | 0.244 | 0.215 | 0.739 | 0.863 | 0.484 | 0.864 | 0.812 | 1.04 | 1.09 | 0.898 | 0.814 | 0.836
NCI-H2023 | 0.309 | 0.269 | 0.413 | 0.266 | 0.219 | 0.343 | 0.301 | 0.243 | 0.239 | 0.222 | 0.667 | 0.527 | 0.534 | 0.615 | 0.335 | 0.763 | 0.471 | 0.529 | 0.536 | 0.348
NCI-H2085 | 0.258 | 0.28 | 0.349 | 0.319 | 0.304 | 0.237 | 0.232 | 0.254 | 0.215 | 0.234 | 0.956 | 0.827 | 0.726 | 0.805 | 0.711 | 0.73 | 0.811 | 0.66 | 0.83 | 0.705
NCI-H2087 | 0.168 | 0.205 | 0.146 | 0.143 | 0.15 | 0.748 | 0.648 | 0.695 | 0.786 | 0.667 | 0.699 | 0.957 | 0.625 | 0.75 | 0.837 | 0.888 | 0.852 | 0.888 | 0.847 | 0.69
NCI-H2126 | 0.532 | 0.457 | 0.42 | 0.564 | 0.381 | 0.422 | 0.423 | 0.35 | 0.467 | 0.373 | 0.736 | 0.668 | 0.66 | 0.714 | 0.738 | 0.515 | 0.455 | 0.4 | 0.492 | 0.485
NCI-H2228 | 0.114 | 0.185 | 0.145 | 0.131 | 0.115 | 0.335 | 0.394 | 0.246 | 0.271 | 0.253 | 0.705 | 0.7 | 0.645 | 0.515 | 0.614 | 0.685 | 0.527 | 0.508 | 0.421 | 0.539
NCI-H2347 | 0.497 | 0.367 | 0.301 | 0.332 | 0.362 | 0.242 | 0.285 | 0.188 | 0.293 | 0.189 | 0.749 | 0.658 | 0.752 | 0.602 | 0.528 | 0.906 | 0.453 | 0.26 | 0.453 | 0.429
NCI-H2405 | 0.657 | 0.548 | 0.523 | 0.52 | 0.484 | 0.207 | 0.211 | 0.183 | 0.182 | 0.209 | 0.783 | 1.07 | 0.783 | 0.726 | 0.744 | 0.672 | 0.63 | 0.53 | 0.662 | 0.452
NCI-H3122 | 0.105 | 0.0862 | 0.0973 | 0.113 | 0.0788 | 0.584 | 0.0535 | 0.0826 | 0.0717 | 0.112 | 1.05 | 1.16 | 1.06 | 1.08 | 1.01 | 1.05 | 0.916 | 0.82 | 0.89 | 0.617
PC-3 [JPC-3] | 0.466 | 0.517 | 0.493 | 0.372 | 0.474 | 0.93 | 0.77 | 0.797 | 0.669 | 0.675 | 0.703 | 0.798 | 0.846 | 0.774 | 0.889 | 0.763 | 0.676 | 0.577 | 0.664 | 0.568
PC-14 | 0.175 | 0.171 | 0.145 | 0.171 | 0.191 | 0.23 | 0.168 | 0.216 | 0.237 | 0.177 | 0.876 | 0.84 | 0.864 | 0.658 | 0.713 | 1.06 | 1.05 | 0.88 | 0.911 | 0.864
RERF-LC-KJ | 0.895 | 0.834 | 0.807 | 0.848 | 0.646 | 0.589 | 0.573 | 0.483 | 0.549 | 0.457 | 0.92 | 0.621 | 0.731 | 0.64 | 0.611 | 0.778 | 0.571 | 0.47 | 0.579 | 0.488
SK-LU-1 | 0.183 | 0.147 | 0.174 | 0.164 | 0.168 | 0.16 | 0.166 | 0.177 | 0.176 | 0.188 | 0.674 | 0.742 | 0.909 | 0.618 | 0.769 | 0.529 | 0.48 | 0.494 | 0.568 | 0.475
SW 1573 | 0.172 | 0.181 | 0.359 | 0.215 | 0.216 | 0.259 | 0.353 | 0.207 | 0.244 | 0.215 | 0.707 | 0.512 | 0.602 | 0.491 | 0.636 | 0.577 | 0.466 | 0.464 | 0.533 | 0.395
UMC-11 | 0.328 | 0.348 | 0.385 | 0.343 | 0.366 | 0.307 | 0.293 | 0.326 | 0.319 | 0.302 | 0.325 | 0.34 | 0.301 | 0.356 | 0.362 | 0.171 | 0.164 | 0.166 | 0.207 | 0.179
